We go through one compound from ChEMBL document CHEMBL4828747, “Structure-Activity Relationships of Withanolides as Antiproliferative Agents for Multiple Myeloma: Comparison of Activity in 2D Models and a 3D Coculture Model” (J Nat Prod, 2021).

The nature of this data set: Stability in human RPMI 8226 cells medium measured upto 72 hrs by HPLC analysis. In kind it is ADME, cell-based. Conditions: rpmi-8226, 72 h.

Turning to `CC1=C(CO[Si](C)(C)C(C)(C)C)C(=O)O[C@@H]([C@@H](C)[C@H]2CC[C@H]3[C@@H]4C[C@H]5O[C@]56[C@@H](O[Si](C)(C)C)C=CC(=O)[C@]6(C)[C@H]4CC[C@]23C)C1`, the Stability result is listed as “Stable”.
